Measured values from ChEMBL document CHEMBL4177530, “Bufospirostenin A and Bufogargarizin C, Steroids with Rearranged Skeletons from the Toad Bufo bufo gargarizans” (J Nat Prod, 2017).
Calls of active or inactive are those of the source. The calls are words filed in the database; no cut-off is given here.

Columns and labels:
Sus scrofa [1] = organism: Sus scrofa; experiment: Inhibition of Na/K-ATPase in pig kidney microsomal membranes assessed as reduction in inorganic phosphate release from ATP at 12.5 uM incubated for 15 mins by spectrophotometry; assay type: cell membranes
Sus scrofa [2] = organism: Sus scrofa; experiment: Inhibition of Na/K-ATPase in pig kidney microsomal membranes assessed as reduction in inorganic phosphate release from ATP at 25 uM incubated for 15 mins by spectrophotometry; assay type: cell membranes

Compound | inhibition (Sus scrofa [1]) | inhibition (Sus scrofa [2])
C=C1CC[C@@]2(OC1)O[C@H]1C[C@H]3[C@@H]4CC=C5C[C@@H](O)C[C@H]5[C@](C)(O)[C@H]4CC[C@]3(C)[C@H]1[C@@H]2C | 21% | 43%
C[C@]12CCC3=C(C=CC4=C(C3)[C@@H]3C[C@H](C4)O3)[C@H]1CC[C@@H]2c1ccc(=O)oc1 | inactive | inactive
C[C@]12CC[C@H](O)C[C@H]1CC[C@@H]1[C@@H]2CC[C@]2(C)[C@@H](c3ccc(=O)oc3)CC[C@]12O | 100% | 100%
